In patent US20140301961A1, “COMPOUNDS WITH ANTI-AGING ACTIVITIES” (priority 2011, published 2014):

How the values were obtained:
[1] = system: prostaglandin-endoperoxide synthase 1 (PTGS1); assay: Affymetrix gene array on skin explants, PTGS1; assay type: cell-based, human; details: topical, 24 hours
Description: (§1) Subcutaneous fat from full thickness skin, obtained from surgical waste material from breast reduction procedures, was removed with a scalpel. Three healthy Caucasian female donors were used for this study. The female donors differed from those of the skin-treatment study outlined previously 8 mm punch biopsies were taken from the skin (and these biopsies are now referred to as skin explants). Skin explants were put on Milipore cell culture inserts (12 mm diameter). Inserts containing skin explants were put in 6-well plates (one insert/well) and 1 mL of supplemented keratinocyte medium (ex Cascade Biologics) was added to each well. A tretinoin-containing cream (Aberela® ex. Janssen): 0.05% tretinoin in the cream, was applied topically to each explant (5 μL/cm^2) using a positive displacement pipette. A placebo cream without tretinoin was used as a control. The skin explants were incubated with tretinoin for 24 hours at 37° C. in 5% CO2-humidified air.
(§2) RNA concentration was measured with ND-1000 spectrophotometer (ex. NanoDrop Technologies) and RNA quality was evaluated using the Agilent 2100 bioanalyzer system (ex. Agilent Technologies). 250 nanograms of total RNA from each skin or skin explant sample was used to prepare biotinylated fragmented cRNA according to the GeneChip® 3′IVT Express Kit Manual (PN702646 Rev 1, ex. Affymetrix Inc.). Affymetrix GeneChip® expression arrays (Human Genome U133 Plus 2.0) were hybridized for 16 hours in a 45° C. incubator, rotated at 60 rpm. According to the GeneChip Expression Wash, Stain and Scan Manual (PN 702731 Rev 2, ex. Affymetrix Inc.) the arrays were washed and stained using the Fluidics Station 450 and scanned using the GeneChip® Scanner 3000 7G.
(§3) Analysis of the gene expression data was carried out in the statistical computing language R (http://www.r-project.org) using packages available from the Bioconductor project (www.bioconductor.org). The raw data was normalized using the robust multi-array average (RMA) method. In order to search for differentially expressed genes between the X samples and the Y samples group an empirical Bayes moderated t-test was then applied using the ‘limma’ package.
(§4) Skin explants were obtained as detailed in Example 3.1.

[2] = system: tachykinin, precursor 1 (TAC1); assay: Affymetrix gene array on skin explants, TAC1; assay type: cell-based, human; details: topical, 24 hours
Description: as §1, §2, §3, §4

[3] = system: MMP1; assay: PMA inflammation induced MMP1 production in human dermal fibroblasts; assay type: cell-based; details: for inhibition of PMA inflammation induced MMP1 production: human dermal fibroblasts, PMA 10 nM, 24 h (FIG. 3); for MMP production: summary of FIGS. 2, 3 and 4 (UV skin explants and PMA dermal fibroblasts)
Procedure: MMP-inhibitory activity for compounds of the invention was also assessed on human dermal fibroblasts. Dermal fibroblasts were cultured in Dulbecco's Modified Eagle Medium (DMEM) (Invitrogen) with 10% EBS (ex. Invitrogen) and 1% Pencillin/Streptavidin (ex. Invitrogen). To induce inflammation in the cells, PMA (phorbol myristate acetate) (ex. Sigma) was used at a concentration of 10 nM. […] The cells were stimulated for 24 h and the culture supernatant was collected and stored at −20° C. until further analysis. Fluorokine MultiAnalyte Profiling (xMAP) using the BioPlex (ex. Biorad) dual laser flow-based sorting and detection analyzers manufactured by Luminex corporation (Luminex, Austin, Tex.) was employed to measure levels of MMP in conditioned media samples of stimulated dermal fibroblasts. The technology incorporated polystyrene microspheres dyed internally with differing ratios of two spectrally distinct fluorophores to create a family of different spectrally addressed bead sets. The bead utilized in this study was conjugated with a biotinylated capture antibody specific for a unique MMPs, The assay was performed without antecedent serum depletion. Results were compared with medium from cells treated with vehicle only (DMSO). The assays utilized a 96-well microplate format and were processed according to the manufacturer's protocol, including generation of a standard curve for each target prepared in background assay diluents. Values that fell within the linear range of the calibration assay were accepted. Samples were analyzed using the Bio-Plex suspension array system and Bio-Plex Manager software 4.0 (Bio-Rad Laboratories, Hercules, Calif.). Quantities were determined by comparison to standard curves obtained for the different MMP.

[4] = system: GM-CSF; assay: UV-induced GM-CSF expression in skin explants; assay type: cell-based, human; details: topical 1% w/w solution in propylene glycol, 120 mJ/cm^2 UVA and UVB (FIG. 9)
Procedure: Full thickness skin from surgical waste material from breast reductions was collected. Subcutaneous fat was removed with a scalpel. 8 mm punch biopsies was taken from the skin and referred to as skin explants. Thereafter, the explants were put on Millipore cell culture inserts (12 mm in diameter). Inserts containing skin explants were put in 6-well plate (1 insert/well) and 1 mL of supplemented keratinocyte medium (Cascade Biologics) was added to each well to allow survival and nutrition of the explants. […] Supernatants were thereafter collected and analyzed for GM-CSF production.

[5] = system: VEGF; assay: Inflammation induced VEGF synthesis in cultured dermal fibroblasts; assay type: cell-based, human; details: inflammatory inducer PMA (FIG. 10)
Procedure: (§5) MMP-inhibitory activity for compounds of the invention was also assessed on human dermal fibroblasts. Dermal fibroblasts were cultured in Dulbecco's Modified Eagle Medium (DMEM) (Invitrogen) with 10% EBS (ex. Invitrogen) and 1% Pencillin/Streptavidin (ex. Invitrogen). To induce inflammation in the cells, PMA (phorbol myristate acetate) (ex. Sigma) was used at a concentration of 10 nM. […] The cells were stimulated for 24 h and the culture supernatant was collected and stored at −20° C. until further analysis.
Fluorokine MultiAnalyte Profiling (xMAP) using the BioPlex (ex. Biorad) dual laser flow-based sorting and detection analyzers manufactured by Luminex corporation (Luminex, Austin, Tex.) was employed to measure levels of MMP in conditioned media samples of stimulated dermal fibroblasts. The technology incorporated polystyrene microspheres dyed internally with differing ratios of two spectrally distinct fluorophores to create a family of different spectrally addressed bead sets. The bead utilized in this study was conjugated with a biotinylated capture antibody specific for a unique MMPs, The assay was performed without antecedent serum depletion. Results were compared with medium from cells treated with vehicle only (DMSO). The assays utilized a 96-well microplate format and were processed according to the manufacturer's protocol, including generation of a standard curve for each target prepared in background assay diluents. Values that fell within the linear range of the calibration assay were accepted. Samples were analyzed using the Bio-Plex suspension array system and Bio-Plex Manager software 4.0 (Bio-Rad Laboratories, Hercules, Calif.). Quantities were determined by comparison to standard curves obtained for the different MMP.
Cell culture and cytokine analysis was carried out on human dermal fibroblasts as described in Example 3.1. The methodology was adapted in order analyze VEGF production.

[6] = system: pro-collagen type 1; assay: Pro-collagen 1 ELISA in dermal fibroblasts; assay type: cell-based, human; details: 24 hour stimulation, 3 donors (FIG. 5)
Procedure: as §5
Fibroblast cells were cultured as outlined in Example 3.1 and treated with compounds of the invention The secretion of pro-collagen in the cell culture supernatants were analyzed using Pro-Collagen 1 specific ELISA (#8003; ex. Quidel). Results were compared with cell culture supernatants from DMSO vehicle treated cells. The assays utilized a 96-well microplate format and were processed according to the manufacturer's protocol, including generation of a standard curve prepared in background assay diluents. Absorbance of the assay dye was read at a Synergy HT plate reader. Values that fell within the linear range of the calibration assay were accepted. Quantities were determined by comparison to standard curve obtained for pro-collagen 1.

| Structure (SMILES) | PTGS1 gene expression [1] [log 2−ratio] | TAC1 gene expression [2] [log 2−ratio] | inhibition of PMA inflammation induced MMP1 production [3] | MMP production [3] | UV-induced expression of GM-CSF [4] | inflammatory induced VEGF synthesis [5] | production of pro-collagen type 1 [6] |
| --- | --- | --- | --- | --- | --- | --- | --- |
| C=C1C[C@]23C[C@@]1(O)CC[C@H]2[C@@]12C=C[C@H](O)[C@@](C)(C(=O)O1)[C@@H]2[C@@H]3C(=O)O [Gibberellic acid, (3S,3aS,4S,4aS,7S,9aR,9bR,12S)-7,12-dihydroxy-3-methyl-6-methylene-2-oxoperhydro-4a,7-methano-9b,3-propenoazuleno[1,2-b]furan-4-carboxylic acid] | −1.11 | −0.62 | inhibition | ability to inhibit MMP production | suppression of UV-induced expression of GM-CSF | reduce inflammatory induced VEGF synthesis | significantly increase |
| CC(=O)N[C@@H](CC(=O)O)C(=O)O [N-Acetyl aspartic acid, (2S)-2-Acetamidobutanedioic acid] | −0.20 | −1.23 | inhibition | ability to inhibit MMP production | suppression of UV-induced expression of GM-CSF | reduce inflammatory induced VEGF synthesis | significantly increase |
| O=C1C[C@@H](c2ccc(O)cc2)Oc2cc(O)cc(O)c21 [Naringenin, (S)-2,3-Dihydro-5,7-dihydroxy-2-(4-hydroxyphenyl)-4H-1-benzopyran-4-one] | −3.51 | −2.78 | inhibition | ability to inhibit MMP production | suppression of UV-induced expression of GM-CSF | reduce inflammatory induced VEGF synthesis | convincing trend towards increasing |
